Results reported in patent US7973012B2, “C-phenyl glycitol compound” (Taisho Pharmaceutical Co., Ltd, priority 2006, dated 2011).

How the values were obtained:
[1] = target: T1, human SGLT2 (Homo sapiens, UniProt P31639); test: Inhibition test of sodium-dependent sugar uptake in CHO-k1 cells stably expressing human SGLT2; assay type: cell-based; conditions: CHO-k1 cells expressing human SGLT2; [14C]methyl α-D-glucopyranoside uptake, 37° C., an hour
T1 construct: expressed in transfected cells; host or cells: CHO-k1
T1 sequence (P31639 1-672): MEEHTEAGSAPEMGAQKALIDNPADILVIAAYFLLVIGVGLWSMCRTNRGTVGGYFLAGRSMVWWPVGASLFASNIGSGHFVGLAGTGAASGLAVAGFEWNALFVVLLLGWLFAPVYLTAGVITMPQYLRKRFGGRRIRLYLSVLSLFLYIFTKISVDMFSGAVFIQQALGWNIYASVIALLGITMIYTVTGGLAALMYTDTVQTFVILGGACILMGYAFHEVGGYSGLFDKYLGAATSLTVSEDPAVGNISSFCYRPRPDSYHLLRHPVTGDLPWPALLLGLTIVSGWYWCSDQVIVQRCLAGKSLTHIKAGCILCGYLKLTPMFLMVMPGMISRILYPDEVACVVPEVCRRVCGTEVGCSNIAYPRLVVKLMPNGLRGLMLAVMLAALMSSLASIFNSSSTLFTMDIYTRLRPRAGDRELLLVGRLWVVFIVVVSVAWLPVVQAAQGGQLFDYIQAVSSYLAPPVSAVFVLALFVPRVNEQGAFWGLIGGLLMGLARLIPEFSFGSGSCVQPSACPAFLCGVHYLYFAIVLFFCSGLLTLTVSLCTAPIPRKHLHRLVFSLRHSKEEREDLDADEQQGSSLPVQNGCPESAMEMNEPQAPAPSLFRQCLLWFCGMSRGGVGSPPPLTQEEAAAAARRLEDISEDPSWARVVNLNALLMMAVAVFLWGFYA
Procedure: (§1) An SGLT1 sequence (NM_000343) was reverse-transcripted from human small intestinal mRNA, then amplified, and then introduced into pCMV-tag5A from Stratagene Corporation. An SGLT2 sequence (NM_003041) was prepared from human nephric mRNA as with the above method, and then introduced into pcDNA3.1+hygro from Invitrogen Corporation. Each cloned sequence was confirmed to be identical with the reported sequence.
(§2) The human SGLT1 and human SGLT2 expression vectors were transfected into CHO-k1 cells by using Lipofectamine 2000 from Invitrogen Corporation. The SGLT expression cells were incubated in the presence of Geneticin (SGLT1) or Hygromycin B (SGLT2) at a 500 μg/mL concentration to select resistant strains, and specific activity of sugar uptake was obtained as an indicator by the following system.
(§3) Cells stably expressing human SGLT1 and human SGLT2 were used for the inhibition test of sodium-dependent glucose uptake.
(§4) The cells were incubated in a pretreatment buffer A (200 μL for SGLT1, and 2 mL for SGLT2) for 20 minutes. The pretreatment buffer was removed and an uptake buffer B (75 μL for SGLT1, and 200 μL for SGLT2) containing a test compound was added to conduct an uptake reaction at 37° C. for 30 minutes (SGLT1) or an hour (SGLT2). After the reaction, the cells were washed with a washing buffer C twice (200 μL for SGLT1, and 2 mL for SGLT2), and then dissolved in a 0.2 M solution of NaOH (75 μL for SGLT1, and 400 μL for SGLT2). After a liquid scintilater was added thereto and mixed sufficiently, radioactivity was measured with microBETA (SGLT1) or a liquid scintillation counter from Beckman Coulter, Inc (SGLT2). As a control group, an uptake buffer containing no test compound was prepared. In addition, as the basic uptake buffer, an uptake buffer B containing choline chloride instead of NaCl was prepared. • A pretreatment buffer A: 140 mM choline chloride, 2 mM KCl, 1 mM CaCl2, 1 mM MgCl2, 10 mM HEPES/5 mM Tris, pH 7.4. • An uptake buffer B: 1 mM of methyl α-D-glucopyranoside containing [^14C]methyl α-D-glucopyranoside, 140 mM NaCl, 2 mM KCl, 1 mM CaCl2, 1 mM MgCl2, 10 mM HEPES/5 mM Tris, pH 7.4. • A washing buffer C: 10 mM methyl α-D-glucopyranoside, 140 mM choline chloride, 2 mM KCl, 1 mM CaCl2, 1 mM MgCl2, 10 mM HEPES/5 mM Tris, pH 7.4.
(§5) In order to obtain IC50 values, test compounds having adequate 6 concentrations were used and the test compound concentrations (IC50 values) at which sugar uptake is inhibited by 50% in comparison with the amount of sugar uptake (100%) of the control group were calculated.
(§6) In addition, the sugar uptake inhibition rates at 100 nM concentration of the test compound in comparison with the control group are shown in Table 7.

[2] = target: T2, human SGLT1 (Homo sapiens, UniProt P13866); test: Inhibition test of sodium-dependent sugar uptake in CHO-k1 cells stably expressing human SGLT1; assay type: cell-based; conditions: CHO-k1 cells expressing human SGLT1; [14C]methyl α-D-glucopyranoside uptake, 37° C., 30 minutes
T2 construct: expressed in transfected cells; host or cells: CHO-k1
T2 sequence (P13866 1-664): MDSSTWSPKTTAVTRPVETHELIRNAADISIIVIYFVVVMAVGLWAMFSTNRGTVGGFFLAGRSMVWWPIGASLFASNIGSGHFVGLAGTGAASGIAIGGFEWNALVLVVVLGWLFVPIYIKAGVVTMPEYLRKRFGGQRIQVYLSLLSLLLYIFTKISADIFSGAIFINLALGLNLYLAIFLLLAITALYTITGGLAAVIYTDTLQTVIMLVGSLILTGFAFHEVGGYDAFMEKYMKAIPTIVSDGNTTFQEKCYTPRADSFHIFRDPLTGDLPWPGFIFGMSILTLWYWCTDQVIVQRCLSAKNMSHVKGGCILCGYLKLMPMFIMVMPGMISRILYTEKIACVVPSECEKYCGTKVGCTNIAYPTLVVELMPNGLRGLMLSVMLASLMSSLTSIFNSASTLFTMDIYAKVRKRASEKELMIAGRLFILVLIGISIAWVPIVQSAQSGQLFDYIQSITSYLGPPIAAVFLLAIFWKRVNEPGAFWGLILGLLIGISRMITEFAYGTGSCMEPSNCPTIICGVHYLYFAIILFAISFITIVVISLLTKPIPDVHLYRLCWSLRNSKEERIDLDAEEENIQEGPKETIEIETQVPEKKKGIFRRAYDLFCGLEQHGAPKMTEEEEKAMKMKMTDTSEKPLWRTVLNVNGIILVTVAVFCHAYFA
Procedure: as §1, §2, §3, §4, §5, §6

[3] = tested on: Streptozotocin diabetic model rats; test: Oral glucose tolerance test in streptozotocin diabetic model rats; assay type: in vivo; conditions: Rattus norvegicus; STZ diabetic SD/IGS rats; 1 mg/kg oral, glucose 2 g/kg oral 5 minutes later; decrease rate of ΔAUC 0-1 h vs control group; read-out: STZ rats-OGTT(2 g/kg) % inhibition ΔAUC0-1 h(mgh/dL) @1 mg/kg
Procedure: 7-week-old SD/IGS rats (from CHARLES RIVER LABORATORIES JAPAN, INC., male) were fasted for about 16 hours. Then to these rats under etherization were administered 50 mg/kg of streptozotocin (STZ) via the tail vein to prepare diabetic model rats. Similarly, to rats under etherization were administered 1 mL/kg physiological saline containing 1.25 mmol/L of citric acid via tail veins to prepare normal control rats. One week (8 weeks old) after administration of STZ or 1.25 mmol/L citric acid physiological saline, the rats were subjected to oral glucose tolerance test.
After the rats were fasted for about 16 hours, the medicament (1 mg/kg) suspended in a 0.5% carboxymethyl cellulose (CMC) aqueous solution was orally administered to a medicament treated group, and only a 0.5% aqueous solution of CMC was orally administered to a control group. At 5 minutes after the administration, a glucose solution (2 g/kg) was orally administered to each rat, and blood was collected at 5 points in total: before the administration (0 time), after 0.25, 0.5, 1 and 2 hours after the oral administration.
The blood was collected from the orbital sinus venosus of each rat under etherization with a heparin-coated blood collection tube and centrifuged, and then blood plasma was separated. The concentration of glucose in the blood plasma was determined with Glucose CII Test Wako from Wako Pure Chemical Industries, Ltd. As for the intensity of inhibitory effect on elevation of blood glucose level, area under the blood glucose level curve (AUC) was calculated by the trapezoidal rule based on the blood glucose levels of the medicament treated group from 0 time to 1 hour time. And a basal value is subtracted from AUC to describe the intensity as area under the blood glucose level increment (ΔAUC) and describe the intensity as a decrease rate from the ΔAUC of the control group.

IC50 [1] | IC50 [2] | SMILES | inhibition in vivo at 1 mg/kg [3]
17 nM | 11 nM | Cc1cc(O)c([C@@H]2O[C@H](CO)[C@@H](O)[C@H](O)[C@H]2O)cc1Cc1ccc(CCCC(=O)NC(C)(C)CO)cc1 [Compound 1, (1S)-1,5-anhydro-1-[2-hydroxy-5-[4-[4-[(2-hydroxy-1,1-dimethylethyl)amino]-4-oxobutyl]benzyl]-4-methylphenyl]-D-glucitol] | 41.7%
18 nM | 32 nM | Cc1cc(O)c([C@@H]2O[C@H](CO)[C@@H](O)[C@H](O)[C@H]2O)cc1Cc1ccc(CCCC(=O)NC(C)(CO)CO)cc1 [Compound 2, (1S)-1,5-anhydro-1-[2-hydroxy-5-[4-[4-[[2-hydroxy-1-(hydroxymethyl)-1-methylethyl]amino]-4-oxobutyl]benzyl]-4-methylphenyl]-D-glucitol] | 51.6%
65 nM | 35 nM | Cc1cc(O)c([C@@H]2O[C@H](CO)[C@@H](O)[C@H](O)[C@H]2O)cc1Cc1ccc(CCCC(=O)NC(CO)(CO)CO)cc1 [Compound 3, (1S)-1,5-anhydro-1-[2-hydroxy-5-[4-[4-[[2-hydroxy-1,1-bis(hydroxymethyl)ethyl]amino]-4-oxobutyl]benzyl]-4-methylphenyl]-D-glucitol] | 63.9%
31 nM | 51 nM | Cc1cc(O)c([C@@H]2O[C@H](CO)[C@@H](O)[C@H](O)[C@H]2O)cc1Cc1ccc(CCCC(=O)NC(C)(C)C(N)=O)cc1 [Compound 4, (1S)-1-[5-[4-[4-[(2-amino-1,1-dimethyl-2-oxoethyl)amino]-4-oxobutyl]benzyl]-2-hydroxy-4-methylphenyl]-1,5-anhydro-D-glucitol] | 51%
29 nM | 65 nM | Cc1cc(O)c([C@@H]2O[C@H](CO)[C@@H](O)[C@H](O)[C@H]2O)cc1Cc1ccc(CCCNC(=O)NC(C)(C)CO)cc1 [Compound 8, (1S)-1,5-anhydro-1-[5-[4-[3-[[(2-hydroxy-1,1-dimethylethyl)aminocarbonyl]amino]propyl]benzyl]-2-hydroxy-4-methylphenyl]-D-glucitol] | 45.1%
29 nM | 175 nM | Cc1cc(O)c([C@@H]2O[C@H](CO)[C@@H](O)[C@H](O)[C@H]2O)cc1Cc1ccc(CCCNC(=O)NC(CO)(CO)CO)cc1 [Compound 9, (1S)-1,5-anhydro-1-[5-[4-[3-[[[2-hydroxy-1,1-bis(hydroxymethyl)ethyl]aminocarbonyl]amino]propyl]benzyl]-2-hydroxy-4-methylphenyl]-D-glucitol] | 50.1%
23 nM | 51 nM | Cc1cc(O)c([C@@H]2O[C@H](CO)[C@@H](O)[C@H](O)[C@H]2O)cc1Cc1ccc(CCNC(=O)NC(C)(C)CO)cc1 [Compound 10, (1S)-1,5-anhydro-1-[5-[4-[2-[[(2-hydroxy-1,1-dimethylethyl)aminocarbonyl]amino]ethyl]benzyl]-2-hydroxy-4-methylphenyl]-D-glucitol] | 67.8%
34 nM | 59 nM | Cc1cc(O)c([C@@H]2O[C@H](CO)[C@@H](O)[C@H](O)[C@H]2O)cc1Cc1ccc(CCNC(=O)NC(CO)(CO)CO)cc1 [Compound 11, (1S)-1,5-anhydro-1-[5-[4-[2-[[[2-hydroxy-1,1-bis(hydroxymethyl)ethyl]aminocarbonyl]amino]ethyl]benzyl]-2-hydroxy-4-methylphenyl]-D-glucitol] | 69.3%
48 nM | 113 nM | Cc1cc(O)c([C@@H]2O[C@H](CO)[C@@H](O)[C@H](O)[C@H]2O)cc1Cc1ccc(CCNC(=O)NC(C)(C)C(=O)N2CCN(C)CC2)cc1 [Compound 12, (1S)-1,5-anhydro-1-[5-[4-[2-[[[1-[1-(4-methylpiperazin-1-yl)carbonyl]-1-(methyl)ethyl]aminocarbonyl]amino]ethyl]benzyl]-2-hydroxy-4-methylphenyl]-D-glucitol] | 48.8%
